From patent US20030186814A1, “Enhanced herbicide composition” (Valent BioSciences Corporation, priority 2002, published 2003)
Counter-ions that a name gives are not always drawn.

How the values were obtained:
Giant Foxtail = assay: Phytotoxicity rating after foliar spray, Giant Foxtail; type: in vivo, Setaria faberi (giant foxtail); conditions: Table 3; glyphosate 0.2% (v/v), alone or with 5 mM NaSA; COC 0.1%; mean rating 1-5; n = 5 plants
Protocol: (§1) In all experiments, deionized ultra-pure water was used in preparing solutions. Spray solutions were used as soon as possible after mixing.
(§2) COC was added to all spray solutions at a rate of 0.10% (v/v). For all treatments containing both an herbicide and a salicylate, these materials were mixed and applied in a single spray solution (commonly known as a tank mix). After spraying, plants were moved to the greenhouse and arranged in a randomized complete block experimental design. Plants were evaluated for phytotoxicity/herbicidal effects after spraying by assessing damage according to the following scale:
(§3) 5=100% leaf area affected (dead)
(§4) All the data were subject to an analysis of variance, and the mean separations were determined with Duncan's multiple range test at α=0.05.

tobacco = assay: Phytotoxicity rating after foliar spray, tobacco; type: in vivo, Nicotiana tabacum (tobacco); conditions: alone or with 5 mM NaSA, COC 0.1%, mean rating 1-5, n = 5 plants
Protocol: as §1, §2, §3, §4

Lambsquarters = assay: Phytotoxicity rating after foliar spray, Lambsquarters; type: in vivo, Chenopodium album (lambsquarter); conditions: Table 4, alone or with 5 mM NaSA, COC 0.1%, mean rating 1-5, n = 6 plants
Protocol: as §1, §2, §3, §4

NK S2676 Soybean = assay: Phytotoxicity rating after foliar spray, Roundup Ready soybean; conditions: Table 5, glyphosate-tolerant crop, n = 4 plants
Protocol: as §1, §2, §3, §4
Roundup Ready crops are tolerant to glyphosate. This tolerance is conferred by genetic modification of the crop species by the insertion of a glyphosate-insensitive EPSP synthase.

[1] = Table 2, glyphosate or Roundup 0.2% (v/v glyphosate)
[2] = glyphosate 0.1% (v/v) + COC 0.1%, mean rating 1-5

O=C(O)CNCP(=O)(O)O [Glyphosate, N-(phosphonomethyl)glycine, monoisopropylamine salt]
Phytotoxicity at 8d (Giant Foxtail): 3.8 A | Phytoxicity at 6d (Giant Foxtail): 2.0 B | Phytoxicity at 11d (Giant Foxtail): 4.9 B | Phytotoxicity at 4d (tobacco; Table 1, glyphosate 0.04%): 1.2 A | Phytotoxicity at 6d (tobacco; Table 1, glyphosate 0.04%): 1.7 BC | Phytotoxicity at 8d (tobacco; Table 1, glyphosate 0.04%): 2 B | Phytotoxicity at 11d (tobacco; Table 1, glyphosate 0.04%): 3.1 B | Phytotoxicity at 14d (tobacco; Table 1, glyphosate 0.04%): 3.6 B | Phytotoxicity at 4d (tobacco; Table 1, glyphosate 0.2% (v/v)): 1.5 B | Phytotoxicity at 6d (tobacco; Table 1, glyphosate 0.2% (v/v)): 2.2 CD | Phytotoxicity at 8d (tobacco; Table 1, glyphosate 0.2% (v/v)): 3.1 D | Phytotoxicity at 11d (tobacco; Table 1, glyphosate 0.2% (v/v)): 4.1 D | Phytotoxicity at 14d (tobacco; Table 1, glyphosate 0.2% (v/v)): 4.9 C | Phytotoxicity at 5f (tobacco; [1]): 1.5 BC | Phytotoxicity at 2d (tobacco; [1]): 1.3 B | Phytotoxicity at 8d (tobacco; [1]): 3.3 C | Phytotoxicity at 13d (tobacco; [1]): 4.9 B | Phytotoxicity at 3d (Lambsquarters; glyphosate 0.004%): 1.0 A | Phytotoxicity at 7d (Lambsquarters; glyphosate 0.004%): 1.3 AB | Phytotoxicity at 11d (Lambsquarters; glyphosate 0.004%): 1.3 AB | Phytotoxicity at 3d (Lambsquarters; glyphosate 0.02%): 1.0 A | Phytotoxicity at 7d (Lambsquarters; glyphosate 0.02%): 1.5 ABC | Phytotoxicity at 11d (Lambsquarters; glyphosate 0.02%): 2.1 BC | Phytotoxicity at 3d (Lambsquarters; glyphosate 0.04%): 1.0 A | Phytotoxicity at 7d (Lambsquarters; glyphosate 0.04%): 1.6 BC | Phytotoxicity at 11d (Lambsquarters; glyphosate 0.04%): 2.4 C | Phytotoxicity at 3d (Lambsquarters; glyphosate 0.2% (v/v)): 1.4 BC | Phytotoxicity at 7d (Lambsquarters; glyphosate 0.2% (v/v)): 2.4 D | Phytotoxicity at 11d (Lambsquarters; glyphosate 0.2% (v/v)): 4.0 D | Phytotoxicity at 1d (NK S2676 Soybean; [2]): 1.6 BC | Phytotoxicity at 4d (NK S2676 Soybean; [2]): 1.8 BC | Phytotoxicity at 6d (NK S2676 Soybean; [2]): 1.9 C | Phytotoxicity at 11d (NK S2676 Soybean; [2]): 1.9 D

O=C([O-])c1ccccc1O.[Na+] [NaSA, sodium salicylate]
Phytotoxicity at 4d (NK S2676 Soybean; NaSA 5 mM + COC 0.1%, mean rating 1 = no damage to 5 = dead): 1.5 B
